Results as given in paper PMC2267855, “Site-directed mutagenesis of Arginine282 suggests how protons and peptides are co-transported by rabbit PepT1” (The International Journal of Biochemistry & Cell Biology, 2008).
Numbering of substitutions follows the chain as printed. Where a SMILES comes first, the peptide text is derived from it.

Columns and labels:
Assay type in all cases: cell-based, rabbit
wild-type PepT1 = biological target: T1, wild-type PepT1 (Oryctolagus cuniculus, UniProt P36836); test: Accumulation of [3H]-D-Phe-L-Gln above the extracellular concentration by oocytes expressing wild-type PepT1
T1 construct: expressed in transfected cells; host or cells: Xenopus laevis oocytes injected with cRNA
T1 sequence (P36836 1-707): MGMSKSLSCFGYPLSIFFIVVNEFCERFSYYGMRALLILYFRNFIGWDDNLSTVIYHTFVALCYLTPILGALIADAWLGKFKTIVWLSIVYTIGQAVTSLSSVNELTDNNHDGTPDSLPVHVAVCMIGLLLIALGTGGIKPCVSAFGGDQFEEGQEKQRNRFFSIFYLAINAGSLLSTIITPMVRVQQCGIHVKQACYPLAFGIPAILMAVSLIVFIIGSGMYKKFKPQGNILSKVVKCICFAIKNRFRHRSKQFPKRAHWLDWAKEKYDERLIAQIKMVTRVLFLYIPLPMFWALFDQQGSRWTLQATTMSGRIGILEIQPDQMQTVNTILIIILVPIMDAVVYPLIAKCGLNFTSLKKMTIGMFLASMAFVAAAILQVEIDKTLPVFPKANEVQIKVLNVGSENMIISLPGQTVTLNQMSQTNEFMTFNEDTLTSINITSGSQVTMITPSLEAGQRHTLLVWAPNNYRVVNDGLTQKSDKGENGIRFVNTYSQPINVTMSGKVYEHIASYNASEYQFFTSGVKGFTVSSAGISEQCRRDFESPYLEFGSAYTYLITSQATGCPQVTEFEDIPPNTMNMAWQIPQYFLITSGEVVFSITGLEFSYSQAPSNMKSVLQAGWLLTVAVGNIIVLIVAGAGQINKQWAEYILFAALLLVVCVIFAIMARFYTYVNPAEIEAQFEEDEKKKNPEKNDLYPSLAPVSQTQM
Experimental: (§1) Zero-trans uptake of [^3H]-D-Phe-L-Gln (17.4 Ci/mmole, custom synthesised, Cambridge Research Biochemicals, Stockton-on-Tees, UK) was performed as previously described ([Meredith, 2004]). Briefly, 5 oocytes were incubated in 100 μl of uptake medium (95 mM NaCl, 2 mM KCl, 1 mM CaCl2, 0.42 mM MgCl2, 10 mM Tris/Hepes pH 7.4 or Tris/Mes pH 5.5) with tracer (0.4 μM) [^3H]-D-Phe-L-Gln. After incubation, the oocytes were washed sequentially five times in 1 ml of ice-cold 120 mM NaCl solution, lysed individually with 100 μl 2% (w/v) SDS and liquid scintillation counted. As a control non-injected oocytes were also incubated in uptake medium with [^3H]-D-Phe-L-Gln as above.

R282E-PepT1 [1] = biological target: T2, R282E-PepT1 (Oryctolagus cuniculus, UniProt P36836, R282E); test: Apparent charge:peptide stoichiometry (two-electrode voltage clamp current / radiolabelled uptake), R282E-PepT1; details: R282E-PepT1, pHout 5.5, resting membrane potential
T2 construct: expressed in transfected cells; host or cells: Xenopus laevis oocytes injected with cRNA
T2 sequence (P36836 1-707 R282E): T1 sequence (P36836 1-707) with R282E
Experimental: Measurements of membrane potential were made by impaling oocytes with a single glass microelectrode (Intra 767 amplifier, WPI, Stevenage, Hertfordshire, UK) perfused in uptake medium (as above) with or without 0.4 μM D-Phe-L-Gln (synthesised in house), 0.6 mM Gly-L-Gln (Sigma, Poole, UK) or 10 mM 4-aminobenzoic acid (4-AMBA, Sigma). Two-electrode voltage clamp (TEVC) was performed by placing oocytes in a 0.1 ml recording chamber and perfusing with uptake solution (pH 5.5 or 7.4) at a rate of 15 ml/min. Oocytes were impaled by two agarose-cushioned microelectrodes filled with 3 M KCl (0.5–2.0 MΩ) and voltage-clamped at −60 mV using a Geneclamp 500B amplifier and PCLAMP 8.1 software (Axon Instruments, CA, USA). The holding potential was stepped from −60 mV over the range of −150 to +50 mV in 10 mV steps, each pulse lasting 100 ms, and returning to −60 mV in between test voltage pulses. Typically traces were filtered at 1 kHz during recording and digitized at 0.5–5 kHz using the DigiData 1200 interface (Axon Instruments, CA, USA). All experiments were carried out at room temperature.
In order to calculate the apparent charge:substrate stoichiometry, the peptide induced current that was measured by two-electrode voltage clamp at the oocyte resting membrane potential was divided by the radiolabelled dipeptide uptake in oocytes from the same preparation. […]

R282E-PepT1 [2] = biological target: T2, R282E-PepT1; test: Inhibition of [3H]-D-Phe-L-Gln uptake into Xenopus oocytes expressing R282E-PepT1 (competition, Ki); details: pHout 5.5, 0.4 μM [3H]-D-Phe-L-Gln
Experimental: as §1
The affinity of wild-type and mutant PepT1 were assessed by competition studies with 0.4 μM [^3H]-D-Phe-L-Gln and Gly-L-Gln present in the uptake medium in concentrations from 0 to 2 mM using the protocol above, and the Ki calculated using the method of [Deves and Boyd (1989)].

Row | accumulation above extracellular concentration (wild-type PepT1; third comparison, printed as wild-type PepT1 at pHout 7.4, 8 h incubation) | accumulation above extracellular concentration (wild-type PepT1; third comparison, printed as wild-type PepT1 at pHout 7.4, 24 h incubation) | accumulation above extracellular concentration (wild-type PepT1; wild-type PepT1, pHout 5.5, 8 h incubation) | accumulation above extracellular concentration (wild-type PepT1; wild-type PepT1, pHout 5.5, 24 h incubation) | accumulation above extracellular concentration (wild-type PepT1; wild-type PepT1, pHout 7.4, 8 h incubation) | accumulation above extracellular concentration (wild-type PepT1; wild-type PepT1, pHout 7.4, 24 h incubation) | apparent stoichiometry (charge:peptide), normalised to wild-type 1:1 (R282E-PepT1 [1]) | Ki (R282E-PepT1 [2]) [µM] | Structure (SMILES)
1 | 1.0 ± 0.4 | 1.5 ± 0.3 | 8.0 ± 1.4 | 8.3 ± 1.0 | 2.5 ± 0.5 | 3.1 ± 0.5 -fold | 4 | – | NC(=O)CC[C@H](NC(=O)[C@H](N)Cc1ccccc1)C(=O)O [D-Phe-L-Gln]
2 | – | – | – | – | – | – | – | 350 ± 170 | NCC(=O)N[C@@H](CCC(N)=O)C(=O)O [Gly-L-Gln] (H-Gly-Gln-OH)
